# Laboratory results published in paper PMC11279807, “Modulation of the Antimelanoma Activity Imparted to Artemisinin Hybrids by the Monoterpene Counterpart” (Molecules, 2024).
# Read-outs that look alike come from different tables or passages of the source.
# Key:
# Assay type in all cases: cell-based, human
# C3PV = test: MTT cell viability assay on normal fibroblasts C3PV; details: 24 h treatment, triplicates, read-out: IC50 (µM ± SD) C3PV
# Method: (§1) The primary human healthy fibroblast C3PV cell line was grown in a culture medium containing 50% Dulbecco Modified Medium (DMEM) and 50% Ham’s F10 supplemented with 10% Fetal Bovine Serum (FBS). […] To all growing media were added 1% Pen/Strep and 1% Glutamine.
# To study the effect of artemisinin derivatives on cell viability, MTT assay was performed. Briefly, C3PV, WM115, and WM266 cell lines were seeded in 96-well plates (3000 cells/well in 100 μL of medium) 24 h before treatment and incubated overnight to allow for cell adherence. […] The analyses of cell viability were performed at the end of the treatment. Triplicates were made in all experiments. After 24 h of treatment with newly synthesized compounds, the culture medium was replaced with a solution containing 0.5 mg/mL of MTT. After 3 h of incubation in an incubator, the medium was removed, and a lysis solution (10% SDS, 0.6% acetic acid in DMSO) was added to dissolve the formazan crystals. Optical density measurements were performed with a microplate reader EPOCH/2 (Biotek) with 630 nm (background) and a 570 nm filters.
# (§2) The IC50 values were determined via non-linear regression, using the GraphPad Prism software package version 8 (GraphPad Software, San Diego, CA, USA). Results were expressed as means of IC50 values ± SD. The TSI values were calculated using the following formula: […]
# WM115 = test: MTT cell viability assay on primary melanoma cell line WM115; details: for IC50: primary melanoma WM115, MTT, 24 h treatment, triplicates, read-out: IC50 (µM ± SD) WM115; for TSI WM115: tumor selectivity index = IC50 on C3PV / IC50 on WM115
# Method: as §1
# (§3) To study the effect of artemisinin derivatives on cell viability, MTT assay was performed. Briefly, C3PV, WM115, and WM266 cell lines were seeded in 96-well plates (3000 cells/well in 100 μL of medium) 24 h before treatment and incubated overnight to allow for cell adherence. Afterward, the medium was replaced with a fresh one containing the appropriate dose of newly synthesized compounds (doses ranging from 0.01 to 1 μM were used for 24 h). The analyses of cell viability were performed at the end of the treatment. Triplicates were made in all experiments. After 24 h of treatment with newly synthesized compounds, the culture medium was replaced with a solution containing 0.5 mg/mL of MTT. After 3 h of incubation in an incubator, the medium was removed, and a lysis solution (10% SDS, 0.6% acetic acid in DMSO) was added to dissolve the formazan crystals. Optical density measurements were performed with a microplate reader EPOCH/2 (Biotek) with 630 nm (background) and a 570 nm filters.
# as §2
# WM266 = test: MTT cell viability assay on metastatic melanoma cell line WM266; details: for IC50: metastatic melanoma WM266, MTT, 24 h treatment, triplicates, read-out: IC50 (µM ± SD) WM266; for TSI WM266: tumor selectivity index = IC50 on C3PV / IC50 on WM266
# Method: as §1, §3, §2
structure (smiles),measurement,setting,value
CC(C)=CCCC(C)CCOC(=O)CCC(=O)OC1OC2OC3(C)CCC4C(C)CCC(C1C)C24OO3 (mixture of isomers) [Hybrid 10c],IC50,"C3PV; Homo sapiens, C3PV, 24 h",4.4 ± 2.9 µM
same,IC50,"WM115; Homo sapiens, WM-115, 24 h",1.3 ± 0.9 µM
same,TSI WM115,WM115,3.4
same,IC50,"WM266; Homo sapiens, WM266, 24 h",0.6 ± 0.02 µM
same,TSI WM266,WM266,7.3
"CC(C)=CCCC(C)CCO (racemic) [(±)-citronellol (±)-6, (±)-citronellol, reference compound]",IC50,"C3PV; Homo sapiens, C3PV, 24 h",3 ± 1.2 µM
same,IC50,"WM115; Homo sapiens, WM-115, 24 h",2.6 ± 0.05 µM
same,TSI WM115,WM115,1.2
same,IC50,"WM266; Homo sapiens, WM266, 24 h",0.3 ± 0.23 µM
same,TSI WM266,WM266,10.0
same,TSI WM266,WM266; listed as citronellol (±)-6,10
"CC(C)=CCC[C@@H](C)CCO [(+)-citronellol (+)-6, (+)-citronellol, reference compound]",IC50,"C3PV; Homo sapiens, C3PV, 24 h",1.9 ± 0.8 µM
same,IC50,"WM115; Homo sapiens, WM-115, 24 h",1.5 ± 0.07 µM
same,TSI WM115,WM115,1.3
same,IC50,"WM266; Homo sapiens, WM266, 24 h",0.6 ± 0.02 µM
same,TSI WM266,WM266,3.2
"CC(C)=CCC[C@H](C)CCO [(-)-citronellol (-)-6, (-)-citronellol, reference compound]",IC50,"C3PV; Homo sapiens, C3PV, 24 h",1 ± 0.9 µM
same,IC50,"WM115; Homo sapiens, WM-115, 24 h",0.9 ± 0.03 µM
same,TSI WM115,WM115,1.1
same,IC50,"WM266; Homo sapiens, WM266, 24 h",0.5 ± 0.3 µM
same,TSI WM266,WM266,2.0
"C[C@H]1[C@H](OC(=O)CCC(=O)O)O[C@@H]2O[C@@]3(C)CC[C@H]4[C@H](C)CC[C@@H]1[C@@]24OO3 [ARTA 3, artesunic acid, reference compound]",IC50,"C3PV; Homo sapiens, C3PV, 24 h",1.7 ± 0.44 µM
same,IC50,"WM115; Homo sapiens, WM-115, 24 h",1.5 ± 0.01 µM
same,TSI WM115,WM115,1.1
same,IC50,"WM266; Homo sapiens, WM266, 24 h",1.3 ± 0.2 µM
same,TSI WM266,WM266,1.3
"C[C@H]1[C@@H](O)O[C@@H]2O[C@@]3(C)CC[C@H]4[C@H](C)CC[C@@H]1[C@@]24OO3 [DHA 2, dihydroartemisinin, reference compound]",IC50,"C3PV; Homo sapiens, C3PV, 24 h",0.7 ± 0.19 µM
same,IC50,"WM115; Homo sapiens, WM-115, 24 h",1.6 ± 0.4 µM
same,TSI WM115,WM115,0.4
same,IC50,"WM266; Homo sapiens, WM266, 24 h",1.6 ± 0.03 µM
same,TSI WM266,WM266,0.4
"C=CCc1ccc(O)c(OC)c1 [Eugenol 4, eugenol, reference compound]",IC50,C3PV; Homo sapiens,1 ± 0.1 µM
same,IC50,"WM115; Homo sapiens, WM-115",3 ± 0.02 µM
same,TSI WM115,WM115,0.3
same,IC50,WM266; Homo sapiens,0.9 ± 0.05 µM
same,TSI WM266,WM266,1.1
"CC(C)=CCC/C(C)=C/CO [Geraniol 8, geraniol, reference compound]",IC50,"C3PV; Homo sapiens, C3PV, 24 h",0.5 ± 0.02 µM
same,IC50,"WM115; Homo sapiens, WM-115, 24 h",0.5 ± 0.01 µM
same,TSI WM115,WM115,1.0
same,IC50,"WM266; Homo sapiens, WM266, 24 h",0.5 ± 0.09 µM
same,TSI WM266,WM266,1.0
C=CCc1ccc(O[C@H]2O[C@@H]3O[C@@]4(C)CC[C@H]5[C@H](C)CC[C@@H]([C@H]2C)[C@@]35OO4)c(OC)c1 [Hybrid 9a],IC50,"C3PV; Homo sapiens, C3PV, 24 h",0.7 ± 0.04 µM
same,IC50,"WM115; Homo sapiens, WM-115, 24 h",0.1 ± 0.01 µM
same,TSI WM115,WM115,7.0
same,IC50,"WM266; Homo sapiens, WM266, 24 h",1 ± 0.09 µM
same,TSI WM266,WM266,0.7
C=C(C)C1CC=C(CO[C@H]2O[C@@H]3O[C@@]4(C)CC[C@H]5[C@H](C)CC[C@@H]([C@H]2C)[C@@]35OO4)CC1 (some centres unmarked) [Hybrid 9b],IC50,"C3PV; Homo sapiens, C3PV, 24 h",0.3 ± 0.1 µM
same,IC50,"WM115; Homo sapiens, WM-115, 24 h",0.2 ± 0.01 µM
same,TSI WM115,WM115,1.5
same,IC50,"WM266; Homo sapiens, WM266, 24 h",0.2 ± 0.01 µM
same,TSI WM266,WM266,1.5
CC(C)=CCC[C@@H](C)CCO[C@H]1O[C@@H]2O[C@@]3(C)CC[C@H]4[C@H](C)CC[C@@H]([C@H]1C)[C@@]24OO3 [Hybrid 9d],IC50,"C3PV; Homo sapiens, C3PV, 24 h",51 ± 0.3 µM
same,IC50,"WM115; Homo sapiens, WM-115, 24 h",2.9 ± 0.6 µM
same,TSI WM115,WM115,17.6
same,IC50,"WM266; Homo sapiens, WM266, 24 h",2.7 ± 0.2 µM
same,TSI WM266,WM266,18.9
CC(C)=CCC[C@H](C)CCO[C@H]1O[C@@H]2O[C@@]3(C)CC[C@H]4[C@H](C)CC[C@@H]([C@H]1C)[C@@]24OO3 [Hybrid 9e],IC50,"C3PV; Homo sapiens, C3PV, 24 h",50 ± 0.03 µM
same,IC50,"WM115; Homo sapiens, WM-115, 24 h",2.4 ± 0.1 µM
same,TSI WM115,WM115,20.8
same,IC50,"WM266; Homo sapiens, WM266, 24 h",2.2 ± 0.6 µM
same,TSI WM266,WM266,22.7
CC(C)=CCC/C(C)=C/CO[C@H]1O[C@@H]2O[C@@]3(C)CC[C@H]4[C@H](C)CC[C@@H]([C@H]1C)[C@@]24OO3 [Hybrid 9g],IC50,"C3PV; Homo sapiens, C3PV, 24 h",6.2 ± 0.7 µM
same,IC50,"WM115; Homo sapiens, WM-115, 24 h",14.5 ± 1.1 µM
same,TSI WM115,WM115,0.4
same,IC50,"WM266; Homo sapiens, WM266, 24 h",13.4 ± 1.5 µM
same,TSI WM266,WM266,0.5
C=CCc1ccc(OC(=O)CCC(=O)OC2OC3OC4(C)CCC5C(C)CCC(C2C)C35OO4)c(OC)c1 (centres unmarked) [Hybrid 10a],IC50,"C3PV; Homo sapiens, C3PV, 24 h",1.6 ± 0.3 µM
same,IC50,"WM115; Homo sapiens, WM-115, 24 h",1.5 ± 0.8 µM
same,TSI WM115,WM115,1.1
same,IC50,"WM266; Homo sapiens, WM266, 24 h",0.6 ± 0.1 µM
same,TSI WM266,WM266,2.7
CC(C)=CCCC(C)CCOC(=O)CCC(=O)OC1OC2OC3(C)CCC4C(C)CCC(C1C)C24OO3 (centres unmarked) [Hybrid 10d],IC50,"C3PV; Homo sapiens, C3PV, 24 h",4.8 ± 0.9 µM
same,IC50,"WM115; Homo sapiens, WM-115, 24 h",1.7 ± 0.5 µM
same,TSI WM115,WM115,2.8
same,IC50,"WM266; Homo sapiens, WM266, 24 h",1.3 ± 0.8 µM
same,TSI WM266,WM266,3.7
CC(C)=CCCC(C)CCOC(=O)CCC(=O)OC1OC2OC3(C)CCC4C(C)CCC(C1C)C24OO3 (centres unmarked) [Hybrid 10e],IC50,C3PV,5.1 ± 1.7 µM
same,IC50,WM115,1.9 ± 0.6 µM
same,TSI WM115,WM115,2.7
same,IC50,WM266,1.6 ± 0.9 µM
same,TSI WM266,WM266,3.2
CC(C)=CCCC(C)=CCOC(=O)CCC(=O)OC1OC2OC3(C)CCC4C(C)CCC(C1C)C24OO3 (centres unmarked) [Hybrid 10g],IC50,C3PV,2.4 ± 0.9 µM
same,IC50,WM115,1.5 ± 0.7 µM
same,TSI WM115,WM115,1.6
same,IC50,WM266,1 ± 0.1 µM
same,TSI WM266,WM266,2.4
CC(C)=CCCC(C)CCOC1OC2OC3(C)CCC4C(C)CCC(C1C)C24O3 (centres unmarked) [Hybrid 11c],IC50,"WM266; Homo sapiens, WM266, 24 h",35.1 ± 2.5 µM
CC(C)=CCCC(C)=CCOC1OC2OC3(C)CCC4C(C)CCC(C1C)C24O3 (centres unmarked) [Hybrid 11f],IC50,"WM266; Homo sapiens, WM266, 24 h",76.3 ± 9.5 µM
same,fold lower antimelanoma effect compared to the corresponding compounds 9c and f,"WM266; WM266, 2-deoxy analogue vs. corresponding DHA hybrid",40 fold
"CC(C)=CCC/C(C)=C\CO [Nerol 7, nerol, reference compound]",IC50,"C3PV; Homo sapiens, C3PV, 24 h",3.8 ± 1.5 µM
same,IC50,"WM115; Homo sapiens, WM-115, 24 h",1.4 ± 0.03 µM
same,TSI WM115,WM115,2.7
same,IC50,"WM266; Homo sapiens, WM266, 24 h",0.5 ± 0.01 µM
same,TSI WM266,WM266,7.6
"CC(=O)O[C@H]1C(=O)[C@@]2(C)[C@H]([C@H](OC(=O)c3ccccc3)[C@]3(O)C[C@H](OC(=O)[C@H](O)[C@@H](NC(=O)c4ccccc4)c4ccccc4)C(C)=C1C3(C)C)[C@]1(OC(C)=O)CO[C@@H]1C[C@@H]2O [PTX, paclitaxel, reference compound]",IC50,"C3PV; Homo sapiens, C3PV, 24 h",78.9 ± 0.8 µM
same,IC50,"WM115; Homo sapiens, WM-115, 24 h",2.3 ± 0.7 µM
same,TSI WM115,WM115,34.3
same,IC50,"WM266; Homo sapiens, WM266, 24 h",0.9 ± 0.04 µM
same,TSI WM266,WM266,87.7
"C=C(C)[C@@H]1CC=C(CO)CC1 [Perillyl alcohol 5, perillyl alcohol, reference compound]",IC50,"C3PV; Homo sapiens, C3PV, 24 h",52.5 ± 9.5 µM
same,IC50,"WM115; Homo sapiens, WM-115, 24 h",1.2 ± 0.02 µM
same,TSI WM115,WM115,43.8
same,IC50,"WM266; Homo sapiens, WM266, 24 h",0.6 ± 0.04 µM
same,TSI WM266,WM266,87.5
